Here are results for 7 molecules from US10738083B2, “Influenza virus neutralizing peptidomimetic compounds” (Janssen Vaccines & Prevention B.V., priority 2015, dated 2020).

The target of assay [1] is T1, H1 HA A/California/07/2009 (Influenza A virus, UniProt C3W5X2). The experiment in a line: AlphaLISA binding competition, HA + stem-binder. The source says:
(§1) Binding competition studies were designed to test compounds for competition with other well characterized HA binding proteins (including e.g. CR9114) with known epitopes on HA. The epitopes where either located at the stem of the HA (viral membrane proximal part of HA) or, for control purposes, at the head of HA (viral membrane distal part of HA). If competition was observed, it is assumed that both molecules bind to a similar or at least overlapping epitope at the surface of HA. Competition with a HA head- and stem-binder was interpreted as unspecific binding.
(§2) Hereto an AlphaLISA competition assay (Perkin Elmer) was established which relied on biotinylated full length and trimeric HA proteins (Protein Sciences, 10 μL, 0.5 nM final concentration in 50 μL) bound by HA-specific binders. The interaction between HA and the binder was detected after 1 h incubation at room temperature (RT) with two beads, a streptavidin donor bead recognizing HA (10 μL of 10 μg/mL) and an anti Fc bead (10 μg/mL) recognizing the IgGs used. If after an additional hour of incubation at RT the excited donor bead (680 nm) and acceptor bead are in close proximity, an energy transfer (singlet oxygen) can be measured as a luminescence signal of the acceptor bead (Perkin Elmer EnVision plate reader). The signal intensity in this homogeneous assay format is directly proportional to the binding strength (affinity/avidity) between both binding partners.

The target in assay [2] is H1 HA A/New Caledonia/20/1999 (Influenza A virus, UniProt Q6WG00). The experiment in a line: AlphaLISA binding competition, HA + stem-binder.
Excerpt: as §1, §2

Assay [3] addresses T1, H1 HA A/California/07/2009. The experiment in a line: AlphaLISA binding competition, HA + head-binder (control).
Excerpt: as §1, §2

The target of assay [4] is H1 HA A/Brisbane/59/07 (Influenza A virus, UniProt D5F1Q8). The experiment in a line: AlphaLISA binding competition, HA + stem-binder.
Excerpt: as §1, §2

The target of assay [5] is HA A/New Caledonia/20/99 (H1) (Influenza A virus, UniProt Q6WG00). The experiment in a line: biochemical. The assay is classed as binding. The note with it: for koff: read-out: dissociation rate kd.
Assay [6] has as its target HA A/Vietnam/1194/04 (H5) (Influenza A virus, UniProt A5A5M5). The experiment in a line: biochemical. The assay is classed as binding. As to conditions: for koff: read-out: dissociation rate kd.
The target in assay [7] is HA A/California/07/09 (H1) (Influenza A virus, UniProt C3W5X2). The experiment in a line: biochemical. The assay is classed as binding. The note with it: for koff: read-out: dissociation rate kd.

*1 amine or outer side, *2 acyl side, *3 side chain or, on linkers, in order; H or OH if unused. Where a SMILES comes first, the peptide text is derived from it. Bridges are numbered along the chain shown (N, C = ends). [ ]: non-standard residue; d: D form. Phe(3,4-Cl2) = N[C@@H](Cc1ccc(Cl)c(Cl)c1)C(=O)O; X2 = O=C(CN(CC(=O)[*:2])CC(=O)[*:3])[*:1]; X1 = NCCC(=O)N[C@@H](CN[*:2])C(=O)[*:1]; Ala(cPent) = N[C@@H](CC1CCCC1)C(=O)O; Glutaryl = O=C(CCCC(=O)[*:2])[*:1]; hhPhe = N[C@@H](CCCc1ccccc1)C(=O)O; NMeL = CN[C@@H](CC(C)C)C(=O)O; Orn = NCCC[C@H](N)C(=O)O; βAla = NCCC(=O)O

Turning to `CC(=O)N[C@@H](CCCNC(=N)N)C(=O)N[C@H]1CCCNC(=O)CN2CC(=O)NCCC[C@@H](C(N)=O)NC(=O)[C@H](CO)NC(=O)[C@H](CC(C)C)NC(=O)[C@H](Cc3c[nH]c4ccccc34)NC(=O)[C@H](CCC(=O)O)NC(=O)[C@H](Cc3ccccc3)NC(=O)[C@H](Cc3ccc(O)cc3)NC(=O)[C@H](CCCNC(=O)C2)NC(=O)[C@H](CC(C)C)NC1=O` [CP141032] (Ac-R[Orn]L[Orn]YFEWLS[Orn]-NH2; linker 2-4-11 via X2), the IC50 in assay [1] was 9550 nM; in assay [2] it was 2240 nM; in assay [3] it was more than 50100 nM.

As to `CC(=O)N[C@@H](CCCc1ccccc1)C(=O)N[C@H]1CCCNC(=O)CCNC(=O)[C@H](CO)NC(=O)[C@H](CC(C)C)NC(=O)[C@H](Cc2c[nH]c3ccccc23)NC(=O)[C@H](CCC(=O)O)NC(=O)[C@H](Cc2ccccc2)NC(=O)[C@H](Cc2ccc(O)cc2)NC(=O)[C@H](CCC(=O)O)NC(=O)[C@H](CC2CCCC2)NC1=O` [CP141036] (Ac-[hhPhe][Orn][Ala(cPent)]EYFEWLS[βAla]; lactam 2-C), the IC50 in assay [1] was 398 nM; in assay [2], 135 nM; in assay [4], 145 nM; in assay [3] it was more than 50100 nM.

Turning to `CC(=O)N[C@@H](CCCc1ccccc1)C(=O)N[C@H]1CCCNC(=O)CCNC(=O)[C@H](CO)NC(=O)[C@H](CC(C)C)NC(=O)[C@H](Cc2c[nH]c3ccccc23)NC(=O)[C@H](CCC(=O)O)NC(=O)[C@H](Cc2ccc(Cl)c(Cl)c2)NC(=O)[C@H](Cc2ccc(O)cc2)NC(=O)[C@H](CCC(=O)O)NC(=O)[C@H](CC(C)C)NC1=O` [CP141019] (Ac-[hhPhe][Orn]LEY[Phe(3,4-Cl2)]EWLS[βAla]; lactam 2-C), the results for the Kd in assay [5], in assay [6] and in assay [7] were 17.8 nM, 31.6 nM and 17 nM, respectively. In addition, the koff in assay [5] was 0.0589 s⁻¹; in assay [6] it was 0.0533 s⁻¹; in assay [7] it was 0.182 s⁻¹. For the same molecule, the IC50 in assay [1] is 70.8 nM; in assay [2], 50.1 nM; in assay [4] it was 46.8 nM; in assay [3], more than 50100 nM.

As for `CC(=O)N[C@@H](CCCc1ccccc1)C(=O)N[C@H]1CCCNC(=O)CCNC(=O)[C@H](CO)NC(=O)[C@H](CC(C)C)NC(=O)[C@H](Cc2c[nH]c3ccccc23)NC(=O)[C@H](CCC(=O)O)NC(=O)[C@H](Cc2ccccc2)NC(=O)[C@H](Cc2ccc(O)cc2)NC(=O)[C@H](CCC(=O)O)NC(=O)[C@H](CC(C)C)N(C)C1=O` [CP141037] (Ac-[hhPhe][Orn][NMeL]EYFEWLS[βAla]; lactam 2-C), the Kd was 44.7 nM in assay [5], 64.6 nM in assay [6] and 61.7 nM in assay [7]. Moreover, the koff in assay [5] is 0.0753 s⁻¹; in assay [6] it was 0.0845 s⁻¹; in assay [7], 0.184 s⁻¹. Also, the IC50 was 204 nM in assay [1], 81.3 nM in assay [2], 87.1 nM in assay [4] and more than 50100 nM in assay [3].

`CC(=O)N[C@@H](CCCc1ccccc1)C(=O)N[C@H]1CCCNC(=O)CCNC(=O)[C@H](CO)NC(=O)[C@H](CC(C)C)NC(=O)[C@H](Cc2c[nH]c3ccccc23)NC(=O)[C@H](CCC(=O)O)NC(=O)[C@H](Cc2ccccc2)NC(=O)[C@H](Cc2ccc(O)cc2)NC(=O)[C@H](CCCCNC(=O)CCCC(=O)O)NC(=O)[C@H](CC(C)C)NC1=O` [CP141066] (Ac-[hhPhe][Orn]LK(Glutaryl)YFEWLS[βAla]; lactam 2-C): the 50% inhibitory concentration (IC50) is 245 nM in assay [1], 186 nM in assay [2] and more than 50100 nM in assay [3].

Take `CC(=O)N[C@@H](CCCc1ccccc1)C(=O)N[C@H]1CCCNC(=O)CCNC(=O)[C@H](CO)NC(=O)[C@H](CC(C)C)NC(=O)[C@H](Cc2c[nH]c3ccccc23)NC(=O)[C@H](CCC(=O)O)NC(=O)[C@H](Cc2ccccc2)NC(=O)[C@H](Cc2ccc(O)cc2)NC(=O)[C@H](CCCNC(=N)N)NC(=O)[C@H](CC(C)C)NC1=O` [CP132070] (Ac-[hhPhe][Orn]LRYFEWLS[βAla]; lactam 2-C): the results for the IC50 in assay [1], in assay [2] and in assay [3] were 288 nM, 178 nM and more than 50100 nM, respectively.

For `CC(=O)N[C@@H](CCCc1ccccc1)C(=O)N[C@H]1CCCNC(=O)[C@@H](NC(=O)CCN)CNC(=O)[C@H](CO)NC(=O)[C@H](CC(C)C)NC(=O)[C@H](Cc2c[nH]c3ccccc23)NC(=O)[C@H](CCC(=O)O)NC(=O)[C@H](Cc2ccccc2)NC(=O)[C@H](Cc2ccc(O)cc2)NC(=O)[C@H](CCC(=O)O)NC(=O)[C@H](CC(C)C)NC1=O` [CP141099] (Ac-[hhPhe][Orn]LEYFEWLS; linker 2-C via X1), the figures for the Kd in assay [5], in assay [6] and in assay [7] were 25.1 nM, 27.5 nM and 26.3 nM, respectively. In addition, the koff in assay [5] was 0.101 s⁻¹; in assay [6] it was 0.0652 s⁻¹; in assay [7], 0.252 s⁻¹. For the same molecule, the IC50 in assay [1] was 58.9 nM; in assay [2], 27.5 nM; in assay [4] it was 67.6 nM; in assay [3] it was more than 50100 nM.
